Article PMC10305148, “In Vitro Characterization and Antiviral Susceptibility of Ophidian Serpentoviruses” (Microorganisms, 2023)
≈ marks a conversion by molar mass, not a printed value. Read-outs that look alike come from different tables or passages of the source.

Legend:
[1] = test system: pathogenic herpesvirus isolated from tortoises; set-up: method as in PMID 9323927; conditions: doses of 25 or 50 µg/mL, turtle heart cell cultures; cited from earlier work
GTSV [2] = experiment: CPE reduction assay in DPHt cells; assay type: cell-based, Green tree python serpentovirus; conditions: average ± SD; for EC50: read-out: EC50 (50% effective concentration, CPE reduction assay)
Excerpt: (§1) Ribavirin was obtained from ICN Pharmaceuticals, Inc. (now Bausch Health, Laval, QC, Canada). Favipiravir was purchased from AdooQ Bioscience (Irvine, CA, USA). NITD-008 was supplied by BEI Resources (Manassas, VA, USA). Enviroximine was purchased from Cayman Chemical (Ann Arbor, MI, USA), and pirodavir was purchased from Med Chem Express (Monmouth Junction, NJ, USA). Infergen (Interferon-alfacon-1), a human consensus interferon, was provided by InterMune, Inc (Brisbane, CA, USA) as an aqueous solution. Solid compounds were dissolved in DMSO at a 20× concentration to yield a final DMSO concentration of <10%. Further dilutions were performed in culture media.
(§2) Diamond python heart cells (DPHt) were grown as described above. Cells were plated in 96-well microtiter plates and grown overnight prior to the addition of the virus and test compounds. A CPE assay was conducted to determine the activity of various antiviral against BPNV, GTSV, and AnPSN. Serial half-log dilutions of the test compounds were made and added to 5 wells of the 96-well plate. Culture media was added to two wells to determine the 50% cytotoxic concentration (CC50), and the virus was added to the other three wells to determine the 50% effective concentrations (EC50). Virus and cell controls were included with each plate. The selective index was determined by dividing the CC50 by the EC50/90 to determine the SI50/90. Two to three replicates of the assays were used to evaluate each compound.

BPNV [3] = experiment: CPE reduction assay in DPHt cells; assay type: cell-based, Ball python nidovirus; conditions: average ± SD; for EC50: Ball python nidovirus, read-out: EC50 (50% effective concentration, CPE reduction assay)
Excerpt: as §1, §2

AnPSV [4] = experiment: CPE reduction assay in DPHt cells; assay type: cell-based, Antaresian python serpentovirus; conditions: average ± SD; for EC50: read-out: EC50 (50% effective concentration, CPE reduction assay)
Excerpt: as §1, §2

[5] = test system: Diamond python heart cells (DPHt); experiment: Cytotoxicity in uninfected wells of the CPE assay; assay type: cell-based, Diamond python (Morelia spilota spilota)
Procedure: as §2, with “compound. A confirmatory virus yield reduction (VYR) assay was conducted where supernatant from the CPE assay was collected and titered on DPHt cells to determine the 90% effective concentration (EC90), or the concentration of compound required to reduce the virus titer by one Log10.” for “compound.”

[6] = Cytotoxicity in uninfected wells of the CPE assay; assay type: cell-based, Diamond python (Morelia spilota spilota); conditions: Diamond python (Morelia spilota spilota), CC50 (50% cytotoxic concentration)
Procedure: as §2, with “compound. A confirmatory virus yield reduction (VYR) assay was conducted where supernatant from the CPE assay was collected and titered on DPHt cells to determine the 90% effective concentration (EC90), or the concentration of compound required to reduce the virus titer by one Log10.” for “compound.”

[7] = set-up: method as in PMID 19918064; conditions: dogs; development ceased; cited from earlier work
Dengue virus = test system: Dengue virus; set-up: method as in PMID 19918064; conditions: animal models; cited from earlier work
[8] = set-up: method as in PMID 19918064; conditions: rats; development ceased; cited from earlier work
AnPNV, BPNV, and GTSV = experiment: CPE reduction assay, summary for all three serpentoviruses; assay type: cell-based, Ophidian serpentoviruses
Excerpt: as §1
as §2, with “compound. A confirmatory virus yield reduction (VYR) assay was conducted where supernatant from the CPE assay was collected and titered on DPHt cells to determine the 90% effective concentration (EC90), or the concentration of compound required to reduce the virus titer by one Log10.” for “compound.”

GTSV [9] = experiment: Virus yield reduction (VYR) assay, supernatant titered on DPHt cells; assay type: cell-based, Green tree python serpentovirus; conditions: for EC90: read-out: EC90 (90% effective concentration, virus yield reduction assay)
BPNV [10] = experiment: as above; assay type: cell-based, Ball python nidovirus; conditions: for EC90: Ball python nidovirus, read-out: EC90 (90% effective concentration, virus yield reduction assay)
AnPSV [11] = experiment: as above; assay type: cell-based, Antaresian python serpentovirus; conditions: for EC90: read-out: EC90 (90% effective concentration, virus yield reduction assay)
[12] = set-up: method as in PMID 17168855; conditions: long-term treatment; cited from earlier work
[13] = Diamond python (Morelia spilota spilota)

Molecule | EC50 (50% effective concentration, CPE reduction assay) (GTSV [2]) [µg/mL] | EC50 (50% effective concentration, CPE reduction assay) (BPNV [3]) [µg/mL] | EC50 (50% effective concentration, CPE reduction assay) (AnPSV [4]) [µg/mL] | EC50 (GTSV [2]) [µg/mL] | EC50 (BPNV [3]) [µg/mL] | EC50 (AnPSV [4]) [µg/mL] | CC50 (50% cytotoxic concentration) [5, 13] [µg/mL] | CC50 [6] [µg/mL] | antiviral activity (in words) (AnPNV, BPNV, and GTSV) | other results
Nc1nc2c(ncn2COCCO)c(=O)[nH]1 [Acyclovir] |  |  |  |  |  |  |  |  |  | activity (in words) [1]: active
CC(C)S(=O)(=O)n1c(N)nc2ccc(/C(=N/O)c3ccccc3)cc21 [Enviroximine] | >4.9 | >0.38 | >0.24 |  |  |  |  |  |  | 
NC(=O)c1nc(F)c[nH]c1=O [Favipiravir] |  |  |  | > 320 | > 320 | > 320 | >320 | > 320 |  | 
C#C[C@@]1(O)[C@H](O)[C@@H](CO)O[C@H]1n1ccc2c(N)ncnc21 [NITD-008] | 1.4 ± 0.8 (≈ 4.82 µM) | 0.7 ± 0.4 (≈ 2.41 µM) | 0.6 ± 0.3 (≈ 2.07 µM) |  |  |  |  |  | potent antiviral activity | toxicity (in words) [7]: toxicity was observed; efficacy (in words) (Dengue virus): showed promise; toxicity (in words) [8]: toxicity was observed; CC50 (50% cytotoxic concentration) ([5]; DPHt cells, table line of AnPSV): 33 ± 9.0 µg/mL (≈ 114 µM); CC50 (50% cytotoxic concentration) ([5]; DPHt cells, table line of BPNV): 37 ± 26 µg/mL (≈ 127 µM); CC50 (50% cytotoxic concentration) ([5]; DPHt cells, table line of GTSV): 55 ± 42 µg/mL (≈ 189 µM); EC90 (90% effective concentration, virus yield reduction assay) (GTSV [9]): 4.8 µg/mL (≈ 16.5 µM); EC90 (90% effective concentration, virus yield reduction assay) (BPNV [10]): 1.5 µg/mL (≈ 5.17 µM); EC90 (90% effective concentration, virus yield reduction assay) (AnPSV [11]): 0.76 µg/mL (≈ 2.62 µM)
CCOC(=O)c1ccc(OCCC2CCN(c3ccc(C)nn3)CC2)cc1 [Pirodavir, pirodavir] |  |  |  | 0.86 (≈ 2.33 µM) | 2.6 (≈ 7.04 µM) | 1.1 (≈ 2.98 µM) | >10 | 7.3 (≈ 19.8 µM) |  | 
CCC(CC)COC(=O)[C@H](C)N[P@](=O)(OC[C@H]1O[C@@](C#N)(c2ccc3c(N)ncnn23)[C@H](O)[C@@H]1O)Oc1ccccc1 [Remdesivir] |  |  |  | < 0.022 | < 0.022 | < 0.022 | 2.3 ± 1.8 (≈ 3.82 µM) | 2.2 ± 1.6 (≈ 3.65 µM) | potent antiviral activity | EC90 (GTSV [9]): < 0.001 µg/mL; EC90 (BPNV [10]): < 0.001 µg/mL; EC90 (AnPSV [11]): < 0.001 µg/mL
NC(=O)c1ncn([C@@H]2O[C@H](CO)[C@@H](O)[C@H]2O)n1 [Ribavirin] |  |  |  | 7.9 ± 3 (≈ 32.3 µM) | 0.9 ± 0.2 (≈ 3.69 µM) | 2 ± 0.3 (≈ 8.19 µM) | >1000 | > 1000 | potent antiviral activity | adverse effect (in words) [12]: associated with anemia; EC90 (GTSV [9]; GTSV, concentration reducing virus titer by one Log10): 14 µg/mL (≈ 57.3 µM); EC90 (BPNV [10]; BPNV, concentration reducing virus titer by one Log10): 1.6 µg/mL (≈ 6.55 µM); EC90 (AnPSV [11]; AnPSV, concentration reducing virus titer by one Log10): 12 µg/mL (≈ 49.1 µM)
Nc1nc(O)c2ncn(COC(CO)CO)c2n1 [ganciclovir] |  |  |  |  |  |  |  |  |  | activity (in words) [1]: active
Interferon-alfacon-1 [Infergen] | >0.01 | >0.01 | >0.01 |  |  |  |  |  |  | CC50 (50% cytotoxic concentration) [5]: 0.01 µg/mL
